# Data as given in patent US6576635B2, “Compositions comprising trimetrexate” (MedImmune Oncology, Inc., priority 1999, dated 2003).
# Assays:
# [1] = Relative thermal stability of solid dosage forms; format: physicochemical; design: key to Appearance: S = satisfactory (pale green-yellow solid); conditions: 40° C.
# Description: Both dosage forms were tested according to the method in Example 2, except the amount of ascorbic acid equivalent to that in the dosage form was added to the trimetrexate HPLC standards being used to evaluate the ascorbate formulation to give equivalent response factors.
# [2] = Relative light stability of dosage forms; format: physicochemical
# Excerpt: (§1) Dosage forms of trimetrexate glucuronate and trimetrexate ascorbate were dispersed in thin films on watch glasses and exposed to illumination in an air atmosphere over time. The overall illumination was approximately 0.28 million lux hours per day and the integrated near ultraviolet energy was approximately 210 watt hours per square meter per day. Therefore at day 9 the dosage forms had received approximately 2.5 million lux hours of illumination and approximately 1900 watt hours per square meter of integrated near ultraviolet energy. The dosage forms were tested over time for trimetrexate decomposition and observed for physical appearance. Both dosage forms were tested according to the method in Example 2, except the amount of ascorbic acid equivalent to that in the dosage form was added to the trimetrexate HPLC standards being used to evaluate the ascorbate formulation to give equivalent response factors.
# (§2) In Table 9, the total quantity of trimetrexate free base is expressed as percent of the initial amount of trimetrexate, and the total amount of impurities is expressed as the sum of the weight percent of the aldehyde degradant and area percent of all other impurities. The oxidative degradation pathway of trimetrexate generates the aldehyde degradant. Its response factor has been determined to be 0.62 relative to that of trimetrexate. Therefore the weight percent of the aldehyde degradant is obtained by dividing the area percent value by the response factor of 0.62.
# [3] = Relative light stability of dosage forms; format: physicochemical; design: key: S = satisfactory (pale green-yellow solid)
# Excerpt: as §1, §2
# [4] = Relative thermal stability of reconstituted dosage forms; format: physicochemical; design: key to Appearance: S = satisfactory (pale green-yellow solution); U = unsatisfactory (discolored solution); conditions: 25 ° C.
# Description: One bulk solution of each dosage form was prepared by combining its vials, held at 25 ° C. and 60% relative humidity in closed containers and tested over time for trimetrexate decomposition and observed for physical appearance. Both dosage forms were tested according to the method in Example 2, except the amount of ascorbic acid equivalent to that in the dosage form was added to the trimetrexate standards being used to evaluate the ascorbate formulation to give equivalent response factors.
# [5] = Relative light stability of dosage forms; format: physicochemical; design: key: S = satisfactory (pale green-yellow solid); U = unsatisfactory (discolored solid)
# Excerpt: as §1, §2
# P450 enzyme system = conditions: cited from earlier work
# [6] = test system: human tumor cells lines derived from breast, colon, lung, ovary, renal and melanoma cells; conditions: cited from earlier work
# [7] = in 1:1 methanol/water; cited from earlier work
# [8] = test system: murine cell lines such as L1210, L5178Y, S-180, W-256; conditions: cited from earlier work
# [9] = test system: murine tumors such as B16 melanoma, colon 26 and 38, L1210 and P388 leukemia and CD8F mammary tumors; conditions: cited from earlier work
# [10] = exposed to oxygen at room temperature; cited from earlier work
# [11] = cited from earlier work
# [12] = day 0 of illumination, weight percent aldehyde + area percent other impurities
# [13] = day 0, thin film, illumination ~0.28 million lux hours per day, air
# [14] = day 9 of illumination (~2.5 million lux hours)
# [15] = day 0, reconstituted ~12.5 mg/ml, 60% RH
# [16] = day 0, reconstituted ~12.5 mg/ml, 60% RH, HPLC area
# [17] = day 0, reconstituted ~12.5 mg/ml, 60% relative humidity
smiles,measurement,setting,value
COc1cc(NCc2ccc3nc(N)nc(N)c3c2C)cc(OC)c1OC.O=C1O[C@H]([C@@H](O)CO)C(O)=C1O [Trimetrexate Ascorbate],% Label Claim,"[1]; 1 month, 75% RH",100.0%
same,% Total Imp.,"[1]; 1 month, 75% RH, HPLC area",<0.1%
same,Appearance,"[1]; 1 month, 75% relative humidity",S
same,% Label Claim,"[1]; 2 months, 75% RH",99.6%
same,% Total Imp.,"[1]; 2 months, 75% RH",<0.1%
same,Appearance,"[1]; 2 months, 75% RH",S
same,% Label Claim,"[1]; 3 months, 75% RH",98.9%
same,% Total Imp.,"[1]; 3 months, 75% RH",<0.1%
same,Appearance,"[1]; 3 months, 75% RH",S
same,% Aldehyde Degredant (w/w),[2]; day 0 of illumination,0.1%
same,% TMX of Initial,[2]; day 0 of illumination,100.0%
same,% Total Imp.,[2]; [12],0.1%
same,% Aldehyde Degredant (w/w),[2]; day 2 of illumination,0.1%
same,% TMX of Initial,[2]; day 2 of illumination,98.3%
same,% Total Imp.,[2]; day 2 of illumination,0.4%
same,% Aldehyde Degredant (w/w),[2]; day 4 of illumination,0.1%
same,% TMX of Initial,[2]; day 4 of illumination,97.7%
same,% Total Imp.,[2]; day 4 of illumination,0.6%
same,% Aldehyde Degredant (w/w),[2]; day 6 of illumination,0.1%
same,% TMX of Initial,[2]; day 6 of illumination,97.1%
same,% Total Imp.,[2]; day 6 of illumination,1.0%
same,% Aldehyde Degredant (w/w),[2]; day 9 of illumination,0.2%
same,% TMX of Initial,[2]; day 9 of illumination,96.1%
same,% Total Imp.,[2]; day 9 of illumination,1.4%
same,Appearance,[3]; [13],S
same,Appearance,[3]; day 2 of illumination,S
same,Appearance,[3]; day 4 of illumination,S
same,Appearance,[3]; day 6 of illumination,S
same,Appearance,[3]; [14],S
same,% Label Claim,[4]; [15],99.0%
same,% Total Imp.,[4]; [16],0.1%
same,Appearance,[4]; [17],S
same,% Label Claim,"[4]; day 1, reconstituted, 60% RH",98.5%
same,% Total Imp.,"[4]; day 1, reconstituted, 60% RH",0.1%
same,Appearance,"[4]; day 1, reconstituted, 60% RH",S
same,% Label Claim,"[4]; day 2, reconstituted, 60% RH",98.4%
same,% Total Imp.,"[4]; day 2, reconstituted, 60% RH",0.1%
same,Appearance,"[4]; day 2, reconstituted, 60% RH",S
same,% Label Claim,"[4]; day 3, reconstituted, 60% RH",98.8%
same,% Total Imp.,"[4]; day 3, reconstituted, 60% RH",0.2%
same,Appearance,"[4]; day 3, reconstituted, 60% RH",S
same,% Label Claim,"[4]; day 4, reconstituted, 60% RH",101.0%
same,% Total Imp.,"[4]; day 4, reconstituted, 60% RH",0.4%
same,Appearance,"[4]; day 4, reconstituted, 60% RH",S
same,% Label Claim,"[4]; day 5, reconstituted, 60% RH",98.2%
same,% Total Imp.,"[4]; day 5, reconstituted, 60% RH",0.3%
same,Appearance,"[4]; day 5, reconstituted, 60% RH",S
same,% Label Claim,"[4]; day 6, reconstituted, 60% RH",96.5%
same,% Total Imp.,"[4]; day 6, reconstituted, 60% RH",0.4%
same,Appearance,"[4]; day 6, reconstituted, 60% RH",S
same,% Label Claim,"[4]; day 7, reconstituted, 60% RH",98.7%
same,% Total Imp.,"[4]; day 7, reconstituted, 60% RH",0.6%
same,Appearance,"[4]; day 7, reconstituted, 60% RH",S
COc1cc(NCc2ccc3nc(N)nc(N)c3c2C)cc(OC)c1OC.O=C(O)[C@H]1O[C@H](O)[C@H](O)[C@@H](O)[C@@H]1O [Trimetrexate Glucuronate],% Label Claim,"[1]; 1 month, 75% RH",99.6%
same,% Total Imp.,"[1]; 1 month, 75% RH, HPLC area",0.1%
same,Appearance,"[1]; 1 month, 75% relative humidity",S
same,% Label Claim,"[1]; 2 months, 75% RH",100.7%
same,% Total Imp.,"[1]; 2 months, 75% RH",0.2%
same,Appearance,"[1]; 2 months, 75% RH",S
same,% Label Claim,"[1]; 3 months, 75% RH",98.0%
same,% Total Imp.,"[1]; 3 months, 75% RH",0.3%
same,Appearance,"[1]; 3 months, 75% RH",S
same,% Aldehyde Degredant (w/w),[2]; day 0 of illumination,0.3%
same,% TMX of Initial,[2]; day 0 of illumination,100.0%
same,% Total Imp.,[2]; [12],0.9%
same,% Aldehyde Degredant (w/w),[2]; day 2 of illumination,2.0%
same,% TMX of Initial,[2]; day 2 of illumination,94.4%
same,% Total Imp.,[2]; day 2 of illumination,3.1%
same,% Aldehyde Degredant (w/w),[2]; day 4 of illumination,3.8%
same,% TMX of Initial,[2]; day 4 of illumination,92.4%
same,% Total Imp.,[2]; day 4 of illumination,5.6%
same,% Aldehyde Degredant (w/w),[2]; day 6 of illumination,5.6%
same,% TMX of Initial,[2]; day 6 of illumination,87.9%
same,% Total Imp.,[2]; day 6 of illumination,8.1%
same,% Aldehyde Degredant (w/w),[2]; day 9 of illumination,8.2%
same,% TMX of Initial,[2]; day 9 of illumination,83.6%
same,% Total Imp.,[2]; day 9 of illumination,11.8%
same,Appearance,[3]; [13],S
same,% Label Claim,[4]; [15],95.9%
same,% Total Imp.,[4]; [16],0.2%
same,Appearance,[4]; [17],S
same,% Label Claim,"[4]; day 1, reconstituted, 60% RH",98.6%
same,% Total Imp.,"[4]; day 1, reconstituted, 60% RH",0.2%
same,Appearance,"[4]; day 1, reconstituted, 60% RH",S
same,% Label Claim,"[4]; day 2, reconstituted, 60% RH",96.8%
same,% Total Imp.,"[4]; day 2, reconstituted, 60% RH",0.4%
same,Appearance,"[4]; day 2, reconstituted, 60% RH",S
same,% Label Claim,"[4]; day 3, reconstituted, 60% RH",97.1%
same,% Total Imp.,"[4]; day 3, reconstituted, 60% RH",0.5%
same,Appearance,"[4]; day 3, reconstituted, 60% RH",U
same,% Label Claim,"[4]; day 4, reconstituted, 60% RH",96.1%
same,% Total Imp.,"[4]; day 4, reconstituted, 60% RH",0.8%
same,Appearance,"[4]; day 4, reconstituted, 60% RH",U
same,% Label Claim,"[4]; day 5, reconstituted, 60% RH",96.5%
same,% Total Imp.,"[4]; day 5, reconstituted, 60% RH",1.1%
same,Appearance,"[4]; day 5, reconstituted, 60% RH",U
same,% Label Claim,"[4]; day 6, reconstituted, 60% RH",95.0%
same,% Total Imp.,"[4]; day 6, reconstituted, 60% RH",1.5%
same,Appearance,"[4]; day 6, reconstituted, 60% RH",U
same,% Label Claim,"[4]; day 7, reconstituted, 60% RH",92.1%
same,% Total Imp.,"[4]; day 7, reconstituted, 60% RH",1.9%
same,Appearance,"[4]; day 7, reconstituted, 60% RH",U
same,Appearance,[5]; day 2 of illumination,U
same,Appearance,[5]; day 4 of illumination,U
same,Appearance,[5]; day 6 of illumination,U
same,Appearance,[5]; [14],U
"COc1cc(NCc2ccc3nc(N)nc(N)c3c2C)cc(OC)c1OC [trimetrexate free base, 2,4-diamino-5-methyl-6-[(3,4,5-trimethoxyanilino)methyl]quinazoline]",metabolism,P450 enzyme system,metabolized by a P450 enzyme system
same,in vitro activity against human tumor cell lines,[6],in vitro activity
same,pKa,[7],8.0
same,in vitro antitumor activity,[8],in vitro antitumor activity
same,in vivo utility against murine tumors,[9],in vivo utility
same,decomposition,[10],decomposes over time
same,water solubility,[11],< 0.1 mg/mL
